In ChEMBL document CHEMBL1201862, “PubChem BioAssay data set” (2004):
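Tested at 5 concentrations; 48 h exposure; 96-well plates; endpoints linearly interpolated, else capped at highest concentration. Abbreviation: GI50, concentration required for 50% inhibition of growth.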 Active and inactive are the calls of the source. Cut-off read from the data, not from the text of the source: active = GI50 up to about 1.1 µM and inactive = higher.

Experiments:
Assay in all cases: DTP human tumour cell line panel, 48 h
HT-29 = test system: HT-29
SK-MEL-28 = test system: SK-MEL-28
MDA-MB-231 = test system: MDA-MB-231
SK-MEL-5 = test system: SK-MEL-5
RXF 393 = test system: RXF 393
NCI-H23 = test system: NCI-H23
T47D = test system: T47D
ACHN = test system: ACHN
NCI-H226 = test system: NCI-H226
CCRF-CEM = test system: CCRF-CEM
PC-3 = test system: PC-3
HOP-62 = test system: HOP-62
Malme-3M = test system: Malme-3M
TK-10 = test system: TK-10
HL-60 = test system: HL-60
BT-549 = test system: BT-549
SNB-19 = test system: SNB-19
SNB-75 = test system: SNB-75
OVCAR-3 = test system: OVCAR-3
UACC-257 = test system: UACC-257
SF-539 = test system: SF-539
SF-268 = test system: SF-268
A498 = test system: A498
MOLT-4 = test system: MOLT-4
EKVX = test system: EKVX
COLO 205 = test system: COLO 205
OVCAR-8 = test system: OVCAR-8
U-251 = test system: U-251
IGROV-1 = test system: IGROV-1
OVCAR-5 = test system: OVCAR-5
Hs-578T = test system: Hs-578T
SK-OV-3 = test system: SK-OV-3
KM12 = test system: KM12
NCI/ADR-RES = test system: NCI/ADR-RES
SW-620 = test system: SW-620
M14 = test system: M14
HCC 2998 = test system: HCC 2998
UO-31 = test system: UO-31
UACC-62 = test system: UACC-62
MCF7 = test system: MCF7
SN12C = test system: SN12C
A549 = test system: A549
SK-MEL-2 = test system: SK-MEL-2
NCI-H460 = test system: NCI-H460
MDA-MB-435 = test system: MDA-MB-435
HCT-116 = test system: HCT-116
NCI-H522 = test system: NCI-H522
K562 = test system: K562
CAKI-1 = test system: CAKI-1
SR = test system: SR
OVCAR-4 = test system: OVCAR-4
786-0 = test system: 786-0
MDA-N = test system: MDA-N
SF-295 = test system: SF-295
DU-145 = test system: DU-145
HCT-15 = test system: HCT-15
LOX IMVI = test system: LOX IMVI
HOP-92 = test system: HOP-92
RPMI-8226 = test system: RPMI-8226
DMS-114 = test system: DMS-114
KM-20L2 = test system: KM-20L2
SNB-78 = test system: SNB-78
M19-MEL = test system: M19-MEL
LXFL 529 = test system: LXFL 529
DLD-1 = test system: DLD-1
HOP-18 = test system: HOP-18
DMS-273 = test system: DMS-273

Measured: GI50

COc1cc(C2c3cc4c(cc3OC(NNc3ccccc3)C2C)OCO4)cc(OC)c1O (stereo not given)
active: T47D 0.757 µM | ACHN 0.159 µM | CCRF-CEM 0.463 µM | PC-3 0.815 µM | SF-539 0.596 µM | MOLT-4 0.275 µM | KM12 0.251 µM | NCI/ADR-RES 1.07 µM | M14 0.255 µM | HCC 2998 0.331 µM | UO-31 1.03 µM | UACC-62 0.132 µM | SN12C 0.54 µM | SK-MEL-2 0.724 µM | NCI-H460 0.337 µM | MDA-MB-435 0.204 µM | NCI-H522 0.561 µM | K562 0.0893 µM | SR 0.207 µM | MDA-N 0.294 µM | SF-295 0.813 µM | LOX IMVI 0.049 µM | RPMI-8226 0.995 µM
inactive: HT-29 1.23 µM | SK-MEL-28 4.22 µM | MDA-MB-231 1.12 µM | SK-MEL-5 1.3 µM | RXF 393 1.92 µM | NCI-H23 5.6 µM | NCI-H226 3.56 µM | HOP-62 5.66 µM | Malme-3M 3.42 µM | TK-10 4.63 µM | HL-60 1.26 µM | BT-549 11.4 µM | SNB-19 6.64 µM | SNB-75 2.33 µM | OVCAR-3 2.36 µM | UACC-257 1.48 µM | SF-268 2.58 µM | A498 3.85 µM | EKVX 7.8 µM | COLO 205 2.93 µM | OVCAR-8 1.52 µM | U-251 2.55 µM | IGROV-1 3.2 µM | OVCAR-5 3.21 µM | Hs-578T 2.83 µM | SK-OV-3 3.79 µM | SW-620 2.59 µM | MCF7 2.7 µM | A549 1.41 µM | HCT-116 1.52 µM | CAKI-1 3.33 µM | OVCAR-4 13.3 µM | 786-0 3.18 µM | DU-145 2.62 µM | HOP-92 9.2 µM
0.313 µM: HCT-15

CCOC(=O)C(C)Sc1nnc(COc2ccccc2OC)n1-c1ccccc1 (stereo not given)
inactive: HT-29 75.5 µM | SK-MEL-28 > 100 µM | SK-MEL-5 > 100 µM | RXF 393 52.4 µM | NCI-H23 > 100 µM | ACHN > 100 µM | DMS-114 14.1 µM | NCI-H226 > 100 µM | CCRF-CEM 53.7 µM | HOP-62 > 100 µM | Malme-3M > 100 µM | TK-10 > 100 µM | HL-60 32.8 µM | KM-20L2 > 100 µM | SNB-19 > 100 µM | SNB-75 > 100 µM | OVCAR-3 > 100 µM | UACC-257 > 100 µM | SF-539 > 100 µM | SF-268 > 100 µM | SNB-78 > 100 µM | EKVX > 100 µM | COLO 205 > 100 µM | OVCAR-8 > 100 µM | U-251 > 100 µM | IGROV-1 > 100 µM | OVCAR-5 > 100 µM | SK-OV-3 > 100 µM | KM12 > 100 µM | SW-620 19.2 µM | M14 > 100 µM | M19-MEL > 100 µM | HCC 2998 29.1 µM | UO-31 > 100 µM | LXFL 529 28.8 µM | UACC-62 > 100 µM | SN12C > 100 µM | A549 > 100 µM | SK-MEL-2 > 100 µM | NCI-H460 18.3 µM | HCT-116 80.7 µM | NCI-H522 42 µM | K562 30.1 µM | CAKI-1 > 100 µM | OVCAR-4 > 100 µM | DLD-1 37.2 µM | HOP-18 77.4 µM | 786-0 > 100 µM | DMS-273 > 100 µM | SF-295 > 100 µM | LOX IMVI 15.7 µM | HOP-92 49.1 µM | RPMI-8226 23.9 µM
active: A498 0.268 µM
16.9 µM: HCT-15

CN(C)CCN1CCc2c([nH]c3ccccc23)C1c1cccnc1 (stereo not given)
inactive: HT-29 > 100 µM | SK-MEL-28 > 100 µM | SK-MEL-5 > 100 µM | RXF 393 20.2 µM | NCI-H23 > 100 µM | ACHN 23 µM | DMS-114 > 100 µM | CCRF-CEM > 100 µM | HOP-62 > 100 µM | TK-10 > 100 µM | HL-60 > 100 µM | KM-20L2 > 100 µM | SNB-19 > 100 µM | SNB-75 61.1 µM | OVCAR-3 > 100 µM | UACC-257 > 100 µM | SF-539 > 100 µM | SF-268 > 100 µM | A498 > 100 µM | MOLT-4 > 100 µM | SNB-78 > 100 µM | EKVX > 100 µM | OVCAR-8 > 100 µM | U-251 > 100 µM | IGROV-1 > 100 µM | OVCAR-5 > 100 µM | SK-OV-3 > 100 µM | KM12 > 100 µM | SW-620 > 100 µM | M14 > 100 µM | M19-MEL > 100 µM | HCC 2998 > 100 µM | UO-31 40.9 µM | UACC-62 > 100 µM | SN12C > 100 µM | A549 > 100 µM | NCI-H460 > 100 µM | HCT-116 > 100 µM | NCI-H522 > 100 µM | K562 > 100 µM | CAKI-1 > 100 µM | SR > 100 µM | OVCAR-4 > 100 µM | DLD-1 > 100 µM | HOP-18 > 100 µM | 786-0 > 100 µM | DMS-273 > 100 µM | SF-295 > 100 µM | HOP-92 63.7 µM | RPMI-8226 > 100 µM
> 100 µM: HCT-15
